The test system of experiment [1] is Abeta total. The experiment can be described thus: Cellular αLisa assay in SKNBE2 cells, Abeta total. In kind it is cell-based, human. The note with it: incubated for 18 hours; for IC50: Homo sapiens, SKNBE2, 18 h, read-out: Cellular αLisa assay in SKNBE2 cells Abetatotal pIC50 (converted). The method, then: (§1) Cellular αLisa Assay in SKNBE2 Cells
(§2) In two αLisa assays the levels of Abeta total and Abeta 1-42 produced and secreted into the medium of human neuroblastoma SKNBE2 cells are quantified. The assay is based on the human neuroblastoma SKNBE2 expressing the wild type Amyloid Precursor Protein (hAPP695). The compounds are diluted and added to these cells, incubated for 18 hours and then measurements of Abeta 1-42 and Abeta total are taken. Abeta total and Abeta 1-42 are measured by sandwich αLisa. αLisa is a sandwich assay using biotinylated antibody AbN/25 attached to streptavidin coated beads and antibody Ab4G8 or cAb42/26 conjugated acceptor beads for the detection of Abeta total and Abeta 1-42 respectively. In the presence of Abeta total or Abeta 1-42, the beads come into close proximity. The excitation of the donor beads provokes the release of singlet oxygen molecules that trigger a cascade of energy transfer in the acceptor beads, resulting in light emission. Light emission is measured after 1 hour incubation (excitation at […] and emission at 615 nm).

In experiment [2] the test system is Abeta 1-42. Put plainly: Cellular αLisa assay in SKNBE2 cells, Abeta 1-42. The class given is cell-based, human. Conditions: incubated for 18 hours; for IC50: Homo sapiens, SKNBE2, 18 h, read-out: Cellular αLisa assay in SKNBE2 cells Abeta 42 pIC50 (converted). On the procedure:
as §1, §2

Structures can show the parent of a compound that is named as a salt.

`CC1(c2cccc(-c3cncnc3)c2)COCC(N)=N1` (racemic) [Compound 3, rac-5-methyl-5-(3-pyrimidin-5-ylphenyl)-5,6-dihydro-2H-1,4-oxazin-3-amine trifluoroacetate salt]: the IC50 in experiment [1] is 646 nM; in experiment [2], 631 nM.
As for `CC1(c2cc(NC(=O)c3ccc(Cl)cn3)ccc2F)COCC(N)=N1` (racemic) [Compound 17], the “Cellular αLisa assay in SKNBE2 cells Abetatotal pIC50” value in experiment [1] came to 8.3. The “Cellular αLisa assay in SKNBE2 cells Abeta 42 pIC50” value in experiment [2] is 8.32.
With `COc1cnc(C(=O)Nc2ccc(F)c(C3(C)COCC(N)=N3)c2)cn1` (racemic) [Compound 57], in experiment [1], the “Cellular αLisa assay in SKNBE2 cells Abetatotal pIC50” value came to 7.8. Also, the “Cellular αLisa assay in SKNBE2 cells Abeta 42 pIC50” value in experiment [2] turned out to be 7.79.
For the compound `CC1(c2cc(NC(=O)c3ccc(Cl)cn3)ccc2F)COCC(N)=N1` (racemic) [Compound 65], the “Cellular αLisa assay in SKNBE2 cells Abetatotal pIC50” value in experiment [1] is recorded as 8.3. Also, the “Cellular αLisa assay in SKNBE2 cells Abeta 42 pIC50” value in experiment [2] stood at 8.32.
`CC1(c2cc(NC(=O)c3ccc(Cl)cn3)ccc2F)N=C(N)COC1C(F)(F)F` (racemic) [Compound 107, trans-rac-N-{3-[5-amino-3-methyl-2-(trifluoromethyl)-3,6-dihydro-2H-1,4-oxazin-3-yl]-4-fluorophenyl}-5-chloropyridine-2-carboxamide]: the IC50 in experiment [1] is 12.6 nM; in experiment [2] it was 15.5 nM.
Consider `CC1(c2cc(NC(=O)c3ccc(Cl)cn3)ccc2F)COCC(N)=N1` (single isomer, unassigned) [Compound 61], for which, in experiment [1], the “Cellular αLisa assay in SKNBE2 cells Abetatotal pIC50” value stood at 6.98. Further, in experiment [2], the “Cellular αLisa assay in SKNBE2 cells Abeta 42 pIC50” value worked out at 6.94.
Regarding `C[C@@]1(c2cc(NC(=O)c3ccc(Cl)cn3)ccc2F)N=C(N)CO[C@]1(F)C(F)(F)F` (single isomer, unassigned) [Compound 109, (2R*,3S*)—N-{3-[5-amino-2-fluoro-3-methyl-2-(trifluoromethyl)-3,6-dihydro-2H-1,4-oxazin-3-yl]-4-fluorophenyl}-5-chloropyridine-2-carboxamide], the IC50 in experiment [1] was 832 nM; in experiment [2] it was 708 nM.
On the same counts, the results for `C[C@]1(c2cc(NC(=O)c3ccc(Cl)cn3)ccc2F)N=C(N)CO[C@@]1(F)C(F)(F)F` (single isomer, unassigned) [Compound 110, (2S*,3R*)—N-{3-[5-amino-2-fluoro-3-methyl-2-(trifluoromethyl)-3,6-dihydro-2H-1,4-oxazin-3-yl]-4-fluorophenyl}-5-chloropyridine-2-carboxamide] are 22.4 nM and 22.9 nM.
For `CC1(c2cccc(NC(=O)c3ccc(Cl)cn3)c2)N=C(N)COC1(F)C(F)(F)F` (single isomer, unassigned) [Compound 114], the “Cellular αLisa assay in SKNBE2 cells Abetatotal pIC50” value in experiment [1] is listed as 5.5. The “Cellular αLisa assay in SKNBE2 cells Abeta 42 pIC50” value in experiment [2] is listed as 5.82.
Regarding `CC1(c2cccc(NC(=O)c3ccc(Cl)cn3)c2)N=C(N)COC1(F)C(F)(F)F` (single isomer, unassigned) [Compound 115], the “Cellular αLisa assay in SKNBE2 cells Abetatotal pIC50” value in experiment [1] is listed as 6.68.
For `CC1(c2cc(NC(=O)c3ccc(C#N)cn3)ccc2F)N=C(N)COC1F` (single isomer, unassigned) [Compound 125], the “Cellular αLisa assay in SKNBE2 cells Abetatotal pIC50” value in experiment [1] turned out to be 6.42. For the same compound, in experiment [2], the “Cellular αLisa assay in SKNBE2 cells Abeta 42 pIC50” value is 6.44.
With `COc1cnc(C(=O)Nc2ccc(F)c(C3(C)N=C(N)COC3F)c2)cn1` (single isomer, unassigned) [Compound 129], the IC50 in experiment [1] was 4570 nM; in experiment [2], 5250 nM.
Turning to `CC1(c2cc(NC(=O)c3ccc(Cl)cn3)ccc2F)N=C(N)COC1F` (single isomer, unassigned) [Compound 135], the “Cellular αLisa assay in SKNBE2 cells Abetatotal pIC50” value in experiment [1] is 5.06. The “Cellular αLisa assay in SKNBE2 cells Abeta 42 pIC50” value in experiment [2] came to 5.04.
As for `CC1(c2cc(NC(=O)c3ccc(Cl)cn3)ccc2F)N=C(N)COC1F` (single isomer, unassigned) [Compound 136], in experiment [1], the “Cellular αLisa assay in SKNBE2 cells Abetatotal pIC50” value was determined as 5.27. The “Cellular αLisa assay in SKNBE2 cells Abeta 42 pIC50” value in experiment [2] stood at 5.26.
Consider `CC1(c2cc(NC(=O)c3ccc(Cl)cn3)ccc2F)N=C(N)COC1F` (single isomer, unassigned) [Compound 137], for which the “Cellular αLisa assay in SKNBE2 cells Abetatotal pIC50” value in experiment [1] is reported as below 4.82. Also, in experiment [2], the “Cellular αLisa assay in SKNBE2 cells Abeta 42 pIC50” value is recorded as below 4.82.
Regarding `CC1(c2cc(NC(=O)c3ccc(Cl)cn3)ccc2F)N=C(N)COC1(F)C(F)(F)F.Cl.Cl` (single isomer, unassigned) [Compound 159], the “Cellular αLisa assay in SKNBE2 cells Abetatotal pIC50” value in experiment [1] is on record as 6.08. In experiment [2], the “Cellular αLisa assay in SKNBE2 cells Abeta 42 pIC50” value was 6.15.
Consider `CC1(c2cc(NC(=O)c3ncc(Cl)cc3Cl)ccc2F)COCC(N)=N1` (stereo not drawn) [Compound 21], for which, in experiment [1], the “Cellular αLisa assay in SKNBE2 cells Abetatotal pIC50” value was 8.3. Moreover, in experiment [2], the “Cellular αLisa assay in SKNBE2 cells Abeta 42 pIC50” value is 8.27.
Take `C[C@@]1(c2cc(NC(=O)c3ccc(Cl)cn3)ccc2F)COCC(N)=N1` [Compound 44]: the “Cellular αLisa assay in SKNBE2 cells Abetatotal pIC50” value in experiment [1] is recorded as 8.3945. For the same compound, the “Cellular αLisa assay in SKNBE2 cells Abeta 42 pIC50” value in experiment [2] amounted to 8.39.
`C[C@@]1(c2cc(NC(=O)c3ccc(Cl)cn3)ccc2F)COCC(N)=N1` [Compound 62]: in experiment [1], the “Cellular αLisa assay in SKNBE2 cells Abetatotal pIC50” value stood at 8.39. Besides, in experiment [2], the “Cellular αLisa assay in SKNBE2 cells Abeta 42 pIC50” value is 8.39.
For `CC1(c2cc(NC(=O)c3ccc(C#N)cn3)ccc2F)N=C(N)COC1F` (stereo not drawn) [Compound 76], the results for the IC50 in experiment [1] and in experiment [2] were 11.2 nM and 11 nM, respectively.
Taken in the same sequence, the figures for `COc1cnc(C(=O)Nc2ccc(F)c(C3(C)N=C(N)COC3F)c2)cn1` (stereo not drawn) [Compound 79] were 25.7 nM and 25.7 nM.
As to `CC1(c2cc(NC(=O)c3ccc(Cl)cn3)ccc2F)N=C(N)COC1C(F)(F)F` (stereo not drawn) [Compound 165], the “Cellular αLisa assay in SKNBE2 cells Abetatotal pIC50” value in experiment [1] turned out to be 8.13. Further, in experiment [2], the “Cellular αLisa assay in SKNBE2 cells Abeta 42 pIC50” value was found to be 8.14.
Take `CC1(c2cc(NC(=O)c3ccc(Cl)cn3)ccc2F)N=C(N)COC1C(F)(F)F` (stereo not drawn) [Compound 170]: in experiment [1], the “Cellular αLisa assay in SKNBE2 cells Abetatotal pIC50” value amounted to 8. Besides, the “Cellular αLisa assay in SKNBE2 cells Abeta 42 pIC50” value in experiment [2] is listed as 8.
For the compound `CC1(c2cc(NC(=O)c3ccc(Cl)cn3)ccc2F)N=C(N)COC1(F)C(F)(F)F` (stereo not drawn) [Compound 186], the “Cellular αLisa assay in SKNBE2 cells Abetatotal pIC50” value in experiment [1] came to 6.78. The “Cellular αLisa assay in SKNBE2 cells Abeta 42 pIC50” value in experiment [2] was determined as 6.75.
For the compound `COc1cnc(C(=O)Nc2ccc(F)c(C3(C4CC4)N=C(N)COC3F)c2)cn1.Cl` (stereo not drawn) [Compound 244], the “Cellular αLisa assay in SKNBE2 cells Abetatotal pIC50” value in experiment [1] came out at 7.11.
With `COc1ccc(C(=O)Nc2cccc([C@@]3(C)N=C(N)CO[C@]3(F)C(F)(F)F)c2)nc1` [Compound 247], the IC50 in experiment [1] was 14.5 nM; in experiment [2], 16.2 nM.
For the compound `COc1ccc(C(=O)Nc2cccc([C@@]3(C)N=C(N)CO[C@@]3(F)C(F)(F)F)c2)nc1` [Compound 248], the results for the IC50 in experiment [1] and in experiment [2] were 209 nM and 229 nM, respectively.
Take `NC1=N[C@@](c2cc(-c3cncc(Cl)c3)ccc2F)(C2CC2)[C@H](F)OC1` [Compound 273]: the IC50 is 6460 nM in experiment [1] and 8130 nM in experiment [2].

The record behind these values is patent US9828350B2, “5,6-dihydro-2H-[1,4]oxazin-3-yl-amine derivatives useful as inhibitors of beta-secretase (BACE)” (Janssen Pharmaceutica NV, priority 2010, dated 2017).
